According to patent US11840560B2, “Prodrugs and uses thereof” (Novo Nordisk A/S, priority 2022, dated 2023):
*1 amine or outer side, *2 acyl side, *3 side chain or, on linkers, in order; H or OH if unused. Where a SMILES comes first, the peptide text is derived from it. Side-chain parts run from the residue outwards. [ ]: non-standard residue; d: D form. The star is where a group is joined. X1 = O=C(O)CCCCCCCCCCCCCCC(=O)N[C@@H](CCC(=O)NCCCC[C@H](NC(=O)CC[C@H](NC(=O)CCCCCCCCCCCCCCC(=O)O)C(=O)O)C(=O)*)C(=O)O; N(2-Aminoethyl)Gly = O=C(CN(CCN[*:3])[*:1])[*:2]; C18 diacid = O=C(O)CCCCCCCCCCCCCCCCC(=O)*; C16 diacid = O=C(O)CCCCCCCCCCCCCCC(=O)*; γGlu = O=C(O)[C@H](CCC(=O)[*:2])N[*:1]; εLys = N[C@@H](CCCCN[*:1])C(=O)[*:2]; AEEA = NCCOCCOCC(=O)O; Aib = CC(C)(N)C(=O)O; Sar = CNCC(=O)O

How the values were obtained:
[1] = physchem; format: physicochemical; conditions: buffer, pH 7.4
Method: The assay was performed to investigate the conversion half-life of prodrug to drug of the prodrugs of the invention. The conversion half-life was investigated in vitro at pH 7.4 upon incubation at 37° C.
Test compounds were dissolved to a concentration of 100 μM in phosphate-buffered saline (140 mM NaCl, 2.07 mM KCl, 8.05 mM Na2HPO4, 1.96 mM KH2PO4, pH 7.4). Solution pH was measured after dissolution and adjusted to pH 7.4 with aqueous NaOH if necessary. The solution was filtered through a 0.22 μm syringe filter, then incubated in a water bath at 37° C. Aliquots were withdrawn at defined timepoints, e.g. every 24-72 hours, for LCMS analysis.
LCMS analysis was performed using the procedure defined in LCMS_A above. The AUC of the prodrug, active drug, and DKP were determined using UV detection at 214 nm, and the ratio of prodrug AUC over total AUC of prodrug plus active drug plus DKP was calculated. The negative natural logarithm of this ratio was plotted over time, and a linear regression of this relationship was then performed.
The prodrug to drug conversion half-life of the compounds of the invention was measured as described in General Methods for Measuring Conversion Half-life.

[2] = in vivo; set-up: species or system beagle dogs; conditions: dog, po, 300 mg; for Tmax / half-life: male, beagle
Method: The purpose of this method is to determine the terminal half-life and plasma exposure in vivo of the compounds of the present invention after p.o. administration to beagle dogs, i.e. the terminal half-life and concentration of test substance that reaches circulation with time. This is done in a pharmacokinetic (PK) study, where these parameters of the compound in question are determined. By terminal half-life is generally meant the period of time it takes to halve a certain plasma concentration, measured after the initial distribution phase.
Tablet compositions comprising the test compounds obtained from Example 1 and SNAC (sodium N-(8-(2-hydroxybenzoyl)amino)caprylate) were prepared according to methods known to the person skilled in the art by mixing test substance with roller compacted SNAC and magnesium stearate as e.g. described in WO 2019/149880. Each tablet was comprised of 7.7 mg magnesium stearate, 2-4 mg of each compound tested, and 300 mg SNAC.
Male beagle dogs, 1-7 years of age and weighing 9-17 kg during the study period, were included in the study. The dogs were dosed in a fasting state. The dogs were group housed in pens (12 hours light: 12 hours dark), and fed individually and restrictedly once daily with Royal Canin Medium Adult dog food (Royal Canin Products, China Branch, or Brogaarden A/S, Denmark). The dogs were used for repeated PK studies with a suitable wash-out period between successive dosing. An appropriate acclimatisation period was given prior to initiation of the first PK study. All handling, dosing, and blood sampling of the animals were performed by trained and skilled staff. Before the studies, the dogs were fasted overnight and from 0 to 4 hours after dosing. The dogs were restricted to water 1 hour before dosing until 4 hours after dosing, but otherwise had adlibitum access to water during the whole period.
The compositions were administered by a single oral dosing to the dogs in groups of 6-8 dogs. The tablets were administered in the following manner: 10 min prior to tablet administration, the dogs may be dosed subcutaneously with approximately 3 nmol/kg of SEQ ID NO.: 7 ([…]), then tablets were placed in the back of the mouth of the dog to prevent chewing. The mouth was then closed, and 10 mL of tap water was given by syringe or gavage to facilitate swallowing of the tablet.
One blood sample was drawn before dosing, and additional samples were drawn at predefined time points after dosing, such as for up to 600 hours, to adequately cover the full plasma concentration-time absorption profile of the test substance. For each blood sample time point, approximately 0.8 mL of whole blood was collected in a 1.5 mL EDTA-coated tube, which was gently turned to mix the sample with EDTA. Blood samples were collected in EDTA buffer (8 mM) and then centrifuged at 4° C. and 2000 g for 10 minutes. Plasma was pipetted into Micronic tubes on dry ice, and kept at −20° C. or lower until analysis. Blood samples were taken as appropriate, for example from a venflon in the cephalic vein in the front leg for the first 2 hours and then with syringe from the jugular vein for the rest of the time points. The first few drops were allowed to drain from the venflon to avoid heparin saline from the venflon in the sample. All blood samples were collected into test tubes containing EDTA for stabilisation and kept on ice until centrifugation. Plasma was separated from whole blood by centrifugation and the plasma was stored at −20° C. or lower until analysis.
The plasma was analysed for test substance using LC-MS (Liquid Chromatography-Mass Spectrometry) as known to the person skilled in the art. […]

[3] = in vivo; set-up: species or system Göttingen minipigs; conditions: female, Göttingen, minipig, iv
Method: The purpose of this method is to determine the half-life in vivo of the derivatives of the present invention after i.v. administration to minipigs, i.e. the prolongation of their time in the body and thereby their time of action. This is done in a pharmacokinetic (PK) study, where the terminal half-life of the derivative in question is determined. By terminal half-life is generally meant the period of time it takes to halve a certain plasma concentration, measured after the initial distribution phase.
Female Göttingen minipigs were obtained from Ellegaard Göttingen Minipigs (Dalmose, Denmark) approximately 7-14 months of age and weighing from approximately 16-35 kg were used in the studies. The minipigs were housed individually and fed restrictedly once daily with SDS minipig diet (Special Diets Services, Essex, UK).
After at 3 weeks of acclimatisation two permanent central venous catheters were implanted in vena cava caudalis in each animal. The animals were allowed 1 week recovery after the surgery, and were then used for repeated pharmacokinetic studies with a suitable wash-out period between successive derivative dosing.
The animals were fasted for approximately 18 hours before dosing and from 0 to 4 hours after dosing but had ad libitum access to water during the whole period.
The sodium salts of compounds of Examples 1 were prepared using method SX_A under General Methods for preparation of the compounds of the invention. The resulting sodium salts were dissolved to a concentration of 50-300 nmol/mL in a buffer containing 0.007% polysorbate 20, 50 mM sodium phosphate, 70 mM sodium chloride, pH 7.4. Intravenous injections (the volume corresponding to usually 1-20 nmol/kg, for example 0.02-0.05 mL/kg) of the compounds were given through one catheter, and blood was sampled at predefined time points for up to 21 days post dosing (preferably through the other catheter). Blood samples (for example 0.8 mL) were collected in 8 mM EDTA buffer and then centrifuged at 4° C. and 1942 g for 10 minutes.
Plasma was pipetted into Micronic tubes on dry ice and kept at −20° C. until analysed for plasma concentration of the compounds using ELISA, or a similar antibody-based assay, or LCMS. Individual plasma concentration-time profiles were analysed by a non-compartmental model in Phoenix WinNonLin ver. 6.4. (Pharsight Inc., Mountain View, CA, USA), and the resulting terminal half-lives (harmonic mean) determined.
The terminal half-lives and/or the observed terminal half-lives, measured as described herein in General Methods for Measuring Terminal Half-Life in Minipigs are shown in Table 7. […] This provides evidence that conversion of prodrug to parent compound is occurring in vivo. The terminal half-life of the prodrug may be faster or slower than the corresponding parent compound due to the contribution of conversion on the terminal half-life of the prodrug.

Row | Compound | half-life at 100 μM [1] [days] | AUC/Dose [2] [kg·h/L] | Cmax/Dose [2] [kg/L] | Tmax [2] [h] | half-life [2] [days] | half-life [3] [days]
1 | CC[C@H](C)[C@H](NC(=O)[C@H](CC(C)C)NC(=O)[C@H](Cc1c[nH]c2ccccc12)NC(=O)[C@H](CCC(N)=O)NC(=O)[C@@H](NC(=O)[C@H](Cc1ccccc1)NC(=O)[C@H](C)NC(=O)[C@H](CCCCNC(=O)COCCOCCNC(=O)COCCOCCNC(=O)CC[C@H](NC(=O)CCCCCCCCCCCCCCCCCCC(=O)O)C(=O)O)NC(=O)[C@H](CCC(N)=O)NC(=O)[C@H](C)NC(=O)[C@@H](NC(=O)[C@H](CCCCN)NC(=O)[C@H](CC(=O)O)NC(=O)[C@H](CC(C)C)NC(=O)C(C)(C)NC(=O)[C@@H](NC(=O)[C@H](CO)NC(=O)[C@H](Cc1ccc(O)cc1)NC(=O)[C@H](CC(=O)O)NC(=O)[C@H](CO)NC(=O)[C@@H](NC(=O)[C@H](Cc1ccccc1)NC(=O)[C@@H](NC(=O)CNC(=O)[C@H](CCC(=O)O)NC(=O)C(C)(C)NC(=O)[C@H](Cc1ccc(O)cc1)NC(=O)CN(C)C(=O)[C@@H](N)CCCCNC(=O)CC[C@H](NC(=O)CCCCCCCCCCCCCCC(=O)O)C(=O)O)[C@@H](C)O)[C@@H](C)O)[C@@H](C)CC)[C@@H](C)CC)C(C)C)C(=O)N[C@@H](C)C(=O)NCC(=O)NCC(=O)N1CCC[C@H]1C(=O)N[C@@H](CO)C(=O)N[C@@H](CO)C(=O)NCC(=O)N[C@@H](C)C(=O)N1CCC[C@H]1C(=O)N1CCC[C@H]1C(=O)N1CCC[C@H]1C(=O)N[C@@H](CO)C(N)=O [Compound 18] | 4.21 | 13.3 | 0.15 | 4 | 3.67 | 
2 | H-K([γGlu-C16 diacid])[Sar]Y[Aib]EGTFTSDYSILLEEQAAREFIEWLLAGGPSK([εLys-εLys-γGlu-C16 diacid])GAPPPS-OH [Compound 12] | 5.38 | 50.8 | 0.46 | 1.3 | 5.96 | 
3 | H-G[N(2-Aminoethyl)Gly]([γGlu-C16 diacid])Y[Aib]EGTFTSDYSILLEEQAAREFIEWLLAGGPSK([AEEA-AEEA-γGlu-C16 diacid])GAPPPS-OH [Compound 2] | 15.1 | 22.9 | 0.18 | 4 | 5.92 | 
4 | H-K([γGlu-C16 diacid])VY[Aib]EGTFTSDYSILLEEQAAREFIEWLLAGGPSK([AEEA-AEEA-γGlu-C16 diacid])GAPPPS-OH [Non-converting compound 1] |  | 20.1 | 0.21 | 1.5 | 5.71 | 7.08
5 | CC[C@H](C)[C@H](NC(=O)[C@H](Cc1ccccc1)NC(=O)[C@H](CCC(=O)O)NC(=O)[C@H](CCCNC(=N)N)NC(=O)[C@H](C)NC(=O)[C@H](C)NC(=O)[C@H](CCC(N)=O)NC(=O)[C@H](CCC(=O)O)NC(=O)[C@H](CCC(=O)O)NC(=O)[C@H](CC(C)C)NC(=O)[C@H](CC(C)C)NC(=O)[C@@H](NC(=O)[C@H](CO)NC(=O)[C@H](Cc1ccc(O)cc1)NC(=O)[C@H](CC(=O)O)NC(=O)[C@H](CO)NC(=O)[C@@H](NC(=O)[C@H](Cc1ccccc1)NC(=O)[C@@H](NC(=O)CNC(=O)[C@H](CCC(=O)O)NC(=O)C(C)(C)NC(=O)[C@@H](N)Cc1ccc(O)cc1)[C@@H](C)O)[C@@H](C)O)[C@@H](C)CC)C(=O)N[C@@H](CCC(=O)O)C(=O)N[C@@H](Cc1c[nH]c2ccccc12)C(=O)N[C@@H](CC(C)C)C(=O)N[C@@H](CC(C)C)C(=O)N[C@@H](C)C(=O)NCC(=O)NCC(=O)N1CCC[C@H]1C(=O)N[C@@H](CO)C(=O)N[C@@H](CCCCNC(=O)[C@@H](N)CCCCNC(=O)[C@@H](N)CCCCNC(=O)CC[C@H](NC(=O)CCCCCCCCCCCCCCC(=O)O)C(=O)O)C(=O)NCC(=O)N[C@@H](C)C(=O)N1CCC[C@H]1C(=O)N1CCC[C@H]1C(=O)N1CCC[C@H]1C(=O)N[C@@H](CO)C(=O)O [Parent compound 2] (H-Y[Aib]EGTFTSDYSILLEEQAAREFIEWLLAGGPSK([εLys-εLys-γGlu-C16 diacid])GAPPPS-OH) |  |  |  |  |  | 4.33
6 | H-K([γGlu-C16 diacid])[Sar]Y[Aib]EGTFTSDYSILLEK([εLys-εLys-γGlu-C18 diacid])QAAREFIEWLLAGGPSSGAPPPS-OH [Compound 16] | 4.88 | 67.6 | 0.73 | 4 | 4 | 
7 | H-K(X1)[Sar]Y[Aib]EGTFTSDYSILLEEQAAREFIEWLLAGGPSK([εLys-εLys-γGlu-C16 diacid])GAPPPS-OH [Compound 14] | 6.92 | 43.6 | 0.38 | 5.5 | 4.96 | 
8 | H-L[N(2-Aminoethyl)Gly]([γGlu-C16 diacid])Y[Aib]EGTFTSDYSILLEEQAAREFIEWLLAGGPSK([AEEA-AEEA-γGlu-C16 diacid])GAPPPS-OH [Compound 5] | 3.08 | 23.4 | 0.25 | 7 | 4.42 | 
9 | H-K([γGlu-C18 diacid])[Sar]Y[Aib]EGTFTSDYSILLEEQAAREFIEWLLAGGPSK([εLys-εLys-γGlu-C16 diacid])GAPPPS-OH [Compound 13] | 5.71 | 41.3 | 0.36 | 4.3 | 5.04 | 
10 | H-K([γGlu-C18 diacid])[Sar]Y[Aib]EGTFTSDYSILLEEQAAREFIEWLLAGGPSK([εLys-εLys-γGlu-C18 diacid])GAPPPS-OH [Compound 15] | 5.29 | 21.7 | 0.20 | 1.5 | 5.17 | 
